From ChEMBL document CHEMBL1143644, “Synthesis and biological activities of novel aryl indole-2-carboxylic acid analogs as PPARgamma partial agonists” (Bioorg Med Chem Lett, 2005)

What was measured:
[1] = target: T1, Peroxisome proliferator-activated receptor alpha (Homo sapiens, UniProt Q07869); assay: Inhibitory concentration against human peroxisome proliferator activated receptor alpha in SPA assay
T1 sequence (Q07869 whole entry): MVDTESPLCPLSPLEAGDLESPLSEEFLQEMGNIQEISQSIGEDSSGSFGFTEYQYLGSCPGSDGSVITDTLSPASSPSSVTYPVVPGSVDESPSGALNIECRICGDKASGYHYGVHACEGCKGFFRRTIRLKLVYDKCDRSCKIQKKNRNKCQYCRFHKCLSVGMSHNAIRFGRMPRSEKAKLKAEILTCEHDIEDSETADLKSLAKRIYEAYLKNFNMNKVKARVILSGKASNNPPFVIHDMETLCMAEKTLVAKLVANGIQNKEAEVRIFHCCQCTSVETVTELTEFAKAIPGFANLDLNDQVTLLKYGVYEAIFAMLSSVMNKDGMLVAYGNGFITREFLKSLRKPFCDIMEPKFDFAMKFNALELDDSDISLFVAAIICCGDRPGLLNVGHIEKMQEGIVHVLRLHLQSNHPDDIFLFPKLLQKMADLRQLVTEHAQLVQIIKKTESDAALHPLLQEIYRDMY

[2] = target: T2, Peroxisome proliferator-activated receptor gamma (Homo sapiens, UniProt P37231)
T2 sequence (P37231 whole entry): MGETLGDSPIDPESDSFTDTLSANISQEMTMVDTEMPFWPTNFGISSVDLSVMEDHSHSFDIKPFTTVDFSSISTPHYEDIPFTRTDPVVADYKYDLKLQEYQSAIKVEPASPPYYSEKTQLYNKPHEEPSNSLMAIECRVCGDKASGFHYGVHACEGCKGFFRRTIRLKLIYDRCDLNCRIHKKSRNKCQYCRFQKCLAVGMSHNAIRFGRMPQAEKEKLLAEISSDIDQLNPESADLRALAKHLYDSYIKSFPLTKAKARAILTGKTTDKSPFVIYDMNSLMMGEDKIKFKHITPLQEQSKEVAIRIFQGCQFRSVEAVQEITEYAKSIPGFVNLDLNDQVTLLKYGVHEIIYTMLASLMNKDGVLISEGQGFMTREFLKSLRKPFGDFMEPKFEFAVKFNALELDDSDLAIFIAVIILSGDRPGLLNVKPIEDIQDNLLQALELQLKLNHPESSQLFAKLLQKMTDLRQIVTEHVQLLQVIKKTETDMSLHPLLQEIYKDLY
Description: Inhibitory concentration against human peroxisome proliferator activated receptor gamma in SPA assay

[3] = target: T2, Peroxisome proliferator-activated receptor gamma; assay: Effective agonist concentration for human PPAR gamma Gal4 construct in transactivation assay; format: functional
[4] = Area under curve at normal dose was determined; format: ADME
[5] = Bioavailability; format: ADME, organism-based; conditions: eutheria, in vivo
[6] = Half life at normal dose was determined; format: ADME

Row | SMILES | IC50 [1] | IC50 [2] | EC50 [3] | bioavailability [5] | half-life [6] | AUC [4]
1 | CC(C)(C)c1ccc(-n2c(C(=O)O)c(Oc3cccc(S(C)(=O)=O)c3)c3ccc(Cl)nc32)cc1 | > 50000 nM | 202 nM |  |  |  | 
2 | CC(C)(C)c1ccc(-n2c(C(=O)O)c(Oc3cccc(C(F)(F)F)c3)c3cccnc32)cc1 | > 50000 nM | 75 nM | 464 nM |  |  | 
3 | CC(C)(C)c1ccc(-n2c(C(=O)O)c(Oc3cccc(C(F)(F)F)c3)c3cc(Oc4ccccn4)ccc32)cc1 |  |  | 126 nM |  |  | 
4 | CC(C)(C)c1ccc(-n2c(C(=O)O)c(Oc3cccc(-c4cc(C(F)(F)F)c[nH]4)c3)c3ccc(Cl)nc32)cc1 | > 50000 nM | 58 nM | 95 nM |  |  | 
5 | COc1ccc(-n2c(C(=O)O)c(Oc3cccc(C(F)(F)F)c3)c3ccccc32)cc1 | > 50000 nM | 115 nM | 334 nM |  |  | 
6 | CC(C)(C)c1ccc(-n2c(C(=O)O)c(Oc3cccc(C(F)(F)F)c3)c3ccc(Cl)nc32)cc1 | > 15000 nM | 21 nM | 176 nM |  |  | 
7 | O=C(O)c1c(Sc2ccccc2)c2cc(Cl)ccc2n1Cc1ccc(Cl)cc1 | > 15000 nM |  |  |  |  | 
8 | CC(C)(C)c1ccc(-n2c(C(=O)O)c(Oc3cccc(C(F)(F)F)c3)c3cc(Oc4cc(C(F)(F)F)ccn4)ccc32)cc1 |  |  | 6 nM | 2.4% | 48 min | 
9 | COc1ccc2c(Oc3cccc(C(F)(F)F)c3)c(C(=O)O)n(-c3ccc(C(C)(C)C)cc3)c2n1 | > 15000 nM | 100 nM | 299 nM |  |  | 
10 | CCOc1cccc(Oc2c(C(=O)O)n(-c3ccc(C(C)(C)C)cc3)c3ccccc23)c1 | > 50000 nM | 49 nM | 233 nM |  |  | 
11 | CC(C)c1cccc(Oc2c(C(=O)O)n(-c3ccc(C(C)(C)C)cc3)c3cc(Cl)ccc23)c1 | > 15000 nM | 19 nM |  |  |  | 
12 | CC(C)(C)c1ccc(-n2c(C(=O)O)c(Oc3cc(C(F)(F)F)cc(C(F)(F)F)c3)c3cc(Cl)ccc32)cc1 | > 15000 nM | 83 nM |  |  |  | 
13 | CC(C)c1cccc(-n2c(C(=O)O)c(Oc3cccc(O)c3)c3ccccc32)c1 | > 50000 nM | 102 nM |  |  |  | 
14 | CC(C)(C)c1ccc(-n2c(C(=O)O)c(Oc3cccc(C(F)(F)F)c3)c3cc(O)ccc32)cc1 | > 50000 nM | 318 nM |  |  |  | 
15 | CC(C)(C)c1ccc(-n2c(C(=O)O)c(Oc3cccc(C(F)(F)F)c3)c3ccccc32)cc1 | 10600 nM | 12 nM | 13 nM |  | 30 min | 9.19 µM·h
16 | CC(C)(C)c1ccc(-n2c(C(=O)O)c(Oc3cccc(C(F)(F)F)c3)c3ccc(Cl)cc32)cc1 | > 15000 nM | 27 nM | 106 nM |  |  | 
17 | CC(C)(C)c1ccc(-n2c(C(=O)O)c(Oc3ccc(Cl)cc3)c3ccc(OC(F)(F)F)cc32)cc1 | > 15000 nM | 298 nM | 411 nM |  |  | 
18 | CC(C)(C)c1ccc(-n2c(C(=O)O)c(Oc3ccc(-c4cc(C(F)(F)F)c[nH]4)cc3)c3cccnc32)cc1 | > 50000 nM | 251 nM | 34 nM |  |  | 
19 | CC(C)(C)c1ccc(-n2c(C(=O)O)c(Oc3cccc(O)c3)c3ccccc32)cc1 | > 50000 nM | 78 nM | 161 nM |  |  | 

Second part, led by results:

Row | IC50 [1] | IC50 [2] | EC50 [3] | bioavailability [5] | half-life [6] | SMILES | AUC [4]
20 | 3200 nM | 107 nM |  |  |  | O=C(O)c1c(Oc2cccc(C(F)(F)F)c2)c2ccccc2n1-c1ccc(C(F)(F)F)cc1 | 
21 | 3580 nM | 49 nM |  |  |  | CC(C)(C)c1ccc(-n2c(C(=O)O)c(Oc3ccc(OC(F)(F)F)cc3)c3ccccc32)cc1 | 
22 | > 15000 nM | 60 nM |  |  |  | CC(C)c1cccc(-n2c(C(=O)O)c(Oc3cccc(C(F)(F)F)c3)c3ccccc32)c1 | 
23 | > 15000 nM | 120 nM |  |  |  | CC(C)c1cccc(-n2c(C(=O)O)c(Oc3ccc(C(F)(F)F)cc3)c3ccccc32)c1 | 
24 | > 15000 nM | 39 nM |  |  |  | COc1ccc2c(c1)c(Oc1cccc(C(F)(F)F)c1)c(C(=O)O)n2-c1ccc(C(C)(C)C)cc1 | 
25 | 4150 nM | 18 nM | 91 nM |  |  | CC(C)COc1ccc2c(c1)c(Oc1cccc(C(F)(F)F)c1)c(C(=O)O)n2-c1ccc(C(C)(C)C)cc1 | 
26 | > 15000 nM | 17 nM | 136 nM |  |  | CC(C)(C)c1ccc(-n2c(C(=O)O)c(Oc3cccc(C(F)(F)F)c3)c3cc(Cl)ccc32)cc1 | 
27 | 6270 nM | 18 nM | 34 nM |  |  | CCOc1ccc2c(c1)c(Oc1cccc(C(F)(F)F)c1)c(C(=O)O)n2-c1ccc(C(C)(C)C)cc1 | 
28 | > 15000 nM | 104 nM | 755 nM |  |  | COc1cccc(Oc2c(C(=O)O)n(-c3ccc(C(C)(C)C)cc3)c3nc(Cl)ccc23)c1 | 
29 | > 15000 nM | 2 nM | 2 nM | 9.8% | 108 min | CC(C)(C)c1ccc(-n2c(C(=O)O)c(Oc3cccc(C(F)(F)F)c3)c3cc(Oc4cc(Cl)c[nH]4)ccc32)cc1 | 0.3 µM·h
30 | 4480 nM | 13 nM |  |  |  | CC(C)(C)c1ccc(-n2c(C(=O)O)c(Oc3ccc(Cl)c(C(F)(F)F)c3)c3cc(Cl)ccc32)cc1 | 
